Source: patent US10222390B2, “Near-infrared fluorescent sensors for biological amines” (The Curators of the University of Missouri, priority 2015, dated 2019)
Where “and” joins values, the source holds several entries; their conditions need not be identical. Equal values may be shown once.

Legend:
[1] = in vitro; cited from earlier work
[2] = Spectral characteristics of sensors (absorption, emission, Stokes shift); assay type: physicochemical
Method: (§1) NeuroSensor 715 was screened with various relevant amines via absorption and fluorescence spectroscopy. Steady-state fluorescence spectroscopic studies were performed using a Horiba Scientific Fluorolog-3 Model FL3C-111 spectrofluorometer and data was collected and analyzed using HJY FluorEssence™ 3.5.1.20 software package. UV-visible spectra were recorded on a Varian Cary 1E UV-visible spectrophotometer at 37° C.
(§2) A 1 mg/mL stock solution of NeuroSensor 715 in DMSO was prepared. A stock solution of NeuroSensor 715 and derivatives in buffer (2×10^−5 M, 25 mM HEPES, 50 mM Na2S2O3, pH 5.0) was prepared. Serotonin, norepinephrine, dopamine, and glutamate stock solutions were prepared by separately dissolving the analytes at the concentration to be used in the titrations with the buffered stock solution of NeuroSensor 715 (thus avoiding dilution of NeuroSensor 715 during the experiment). NeuroSensor 715 was titrated with aliquots of the analyte solution. NeuroSensor 715 derivatives were excited at 559 nm. The slit width was 10 nm for both excitation and emission.

[3] = Fluorescence/absorbance titration of NS715 with serotonin; assay type: binding
Method: as §1, §2
NeuroSensor 715 binds to all primary amines via iminium ion formation, which produces a red shift in absorption from 500 to 546 nm (FIG. 6 (A)). In fluorescence mode, exciting the unbound NeuroSensor 715 at 559 nm provided fluorescence emission at 686 nm. In fluorescence mode, exciting the bound complex at 559 nm upon adding serotonin produced a marked 8.0-fold fluorescence enhancement at […] (FIG. 6 (B)).

[4] = Fluorescence/absorbance titration of NS715 with dopamine; assay type: binding
Method: as §1, §2

[5] = Fluorescence/absorbance titration of NS715 with norepinephrine; assay type: binding
Method: as §1, §2

[6] = Fluorescence/absorbance titration of NS715 with glutamate; assay type: binding
Method: as §1, §2

[7] = Interaction of NS715 with epinephrine in vitro; assay type: binding
[8] = system: norepinephrine-enriched chromaffin cells; test: Confocal imaging of norepinephrine-enriched chromaffin cells incubated with NS715; assay type: cell-based; details: NS715 10 μM
Method: (§3) NS715 binds to norepinephrine and strongly fluoresces, but not to epinephrine because it is a secondary-amine neurotransmitter. Both populations of cells were incubated with NS715 (10 μM), washed, and subsequently imaged using confocal microscopy. The unbound UV λmax=500 nm and the bound UV λmax=546 nm. The unbound sensor emits at 686 nm and the bound sensor emits at 715 nm. Excitation wavelengths of 458 nm and 633 nm were used to preferentially excite the unbound and bound forms of NS715. Emission for all excitation wavelengths was measured using 650 nm-710 nm bandpass filter.

[9] = system: epinephrine-enriched chromaffin cells; test: Confocal imaging of epinephrine-enriched chromaffin cells incubated with NS715; assay type: cell-based; details: NS715 10 μM
Method: as §3

[10] = sensor saturated with primary amine analyte (bound)
[11] = thiophene in place of benzene moiety on NeuroSensor 521 platform
[12] = intensity at saturation from fit
[13] = λex = 559 nm, λem = 780 nm, buffer pH 5.0, error ±10%

In the case of CCN(CC)c1ccc2c(-c3ccc(OC)cc3)c(C=O)c(=O)oc2c1 [NS521], the “fluorescence response upon interaction with serotonin” value [1] is listed as “fluorescence quenching”.
Work on CCN(CC)c1ccc2c(-c3ccccc3)c(C=O)c(=O)oc2c1 [benzene-based NeuroSensor 521 derivative] yielded a Stokes shift [2, 10] of 32 nm, a λabs [2, 10] of 488 nm and a λem [2, 10] of 520 nm. For the same compound, the Stokes shift ([2]; unbound sensor) was 53 nm, the λabs ([2]; unbound sensor) was 452 nm and the λem ([2]; unbound sensor) was 505 nm.
In the case of CCN(CC)c1ccc2c(-c3cccs3)c(C=O)c(=O)oc2c1, the Stokes shift [2, 10] was 37 nm, the λabs [2, 10] was 502 nm and the λem [2, 10] was 539 nm. For the same compound, the “bathochromic shift in absorbance” value [2, 11] was 10 nm, the “bathochromic shift in fluorescence emission” value [2, 11] was 17 nm and the Stokes shift ([2]; unbound sensor) was 60 nm. The λabs ([2]; unbound sensor) was 462 nm and the λem ([2]; unbound sensor) was 522 nm.
In the case of CCN1CCN(CC)c2cc3c(-c4cccs4)c(C=O)c(=O)oc3cc21 [NS715], the “higher binding constant for serotonin compared to glutamate” value ([3]; serotonin vs glutamate, listed as NeuroSensor 715) was 19 fold and 18 fold, the fluorescence enhancement ([3]; serotonin, at 715 nm) was 8.0 fold and the fluorescence enhancement ([3]; serotonin, excited at 559 nm, measured at 780 nm) was 8.0 fold. For the same compound, the Isat/I0 ([3]; serotonin, fluorescence intensity at saturation from fit to binding isotherm) was 8.0, the Ka ([3]; serotonin, fluorescence spectroscopy, λex = 559 nm, λem = 780 nm, buffer pH 5.0, error ±10%) was 409 M⁻¹ and the fluorescence enhancement [4] was 3.4 fold. The Isat/I0 [4, 12] was 4.0, the Ka [4, 13] was 145 M⁻¹ and the fluorescence enhancement ([5]; norepinephrine) was 3.0 fold. The “higher binding constants of catecholamines compared to glutamate” value ([5]; norepinephrine and dopamine on average vs glutamate) was 6.0 fold, the Isat/I0 ([5]; norepinephrine, intensity at saturation from fit) was 3.4 and the Ka ([5]; norepinephrine, λex = 559 nm, λem = 780 nm, buffer pH 5.0, error ±10%) was 129 M⁻¹. The fluorescence enhancement [6] was 3.0 fold, the Isat/I0 [6, 12] was 3.0 and the Ka [6, 13] was 22.3 M⁻¹. For the same compound, the “modulation of absorption or fluorescence spectrum upon interaction with epinephrine” value [7] was “no modulation in the absorption or fluorescence spectrum”, the “average fluorescence intensity of norepinephrine-enriched cells relative to epinephrine-enriched cells” value [8] was 15 fold and the “fluorescence when excited at 633 nm” value ([8]; norepinephrine-enriched cells) was “punctate pattern with strong fluorescence”. The average fluorescence intensity ([8]; norepinephrine-enriched cells, 650-710 nm bandpass, n=20) was 12.42±1.75, the “fluorescence when excited at 633 nm” value [9] was “marginal fluorescence” and the average fluorescence intensity ([9]; 650-710 nm bandpass, n=20) was 0.85±0.29. The “increase of Stokes shift compared to thiophene-based NeuroSensor 521 derivative” value ([2]; both unbound and bound complex) was “over 125 nm”, the Stokes shift [2, 10] was 169 nm and the λabs [2, 10] was 546 nm. The λem [2, 10] was 715 nm, the λabs ([2]; unbound sensor) was 500 nm and the λem ([2]; unbound sensor) was 686 nm. The Stokes shift ([2]; unbound sensor, listed as NeuroSensor 715) was 186 nm.
